{"source": "PubChem BioAssay (NCI)", "experiment_in_all_cases": "NCI tumour cell line growth inhibition, 48 h", "key": {"[1]": {"test_system": "786-0 renal"}, "[2]": {"test_system": "A498 renal"}, "[3]": {"test_system": "A549 NSCLC"}, "[4]": {"test_system": "ACHN renal"}, "[5]": {"test_system": "BT-549 breast"}, "[6]": {"test_system": "CAKI-1 renal"}, "[7]": {"test_system": "CCRF-CEM leukemia"}, "[8]": {"test_system": "COLO 205 colon"}, "[9]": {"test_system": "DU-145 prostate"}, "[10]": {"test_system": "EKVX NSCLC"}, "[11]": {"test_system": "HCC-2998 colon"}, "[12]": {"test_system": "HCT-116 colon"}, "[13]": {"test_system": "HCT-15 colon"}, "[14]": {"test_system": "HL-60(TB) leukemia"}, "[15]": {"test_system": "HOP-62 NSCLC"}, "[16]": {"test_system": "HS 578T breast"}, "[17]": {"test_system": "HT29 colon"}, "[18]": {"test_system": "IGROV1 ovarian"}, "[19]": {"test_system": "KM12 colon"}, "[20]": {"test_system": "LOX IMVI melanoma"}, "[21]": {"test_system": "M14 melanoma"}, "[22]": {"test_system": "MALME-3M melanoma"}, "[23]": {"test_system": "MCF7 breast"}, "[24]": {"test_system": "MDA-MB-231 breast"}, "[25]": {"test_system": "MDA-MB-435"}, "[26]": {"test_system": "MOLT-4 leukemia"}, "[27]": {"test_system": "NCI-H226 lung"}, "[28]": {"test_system": "NCI-H23 lung"}, "[29]": {"test_system": "NCI-H460 lung"}, "[30]": {"test_system": "NCI-H522 lung"}, "[31]": {"test_system": "NCI/ADR-RES ovarian"}, "[32]": {"test_system": "OVCAR-4 ovarian"}, "[33]": {"test_system": "OVCAR-5 ovarian"}, "[34]": {"test_system": "OVCAR-8 ovarian"}, "[35]": {"test_system": "PC-3 prostate"}, "[36]": {"test_system": "RPMI-8226 leukemia"}, "[37]": {"test_system": "RXF 393 renal"}, "[38]": {"test_system": "SF-268 CNS"}, "[39]": {"test_system": "SF-295 CNS"}, "[40]": {"test_system": "SF-539 CNS"}, "[41]": {"test_system": "SK-MEL-28 melanoma"}, "[42]": {"test_system": "SK-MEL-5 melanoma"}, "[43]": {"test_system": "SK-OV-3 ovarian"}, "[44]": {"test_system": "SN12C renal"}, "[45]": {"test_system": "SNB-19 CNS"}, "[46]": {"test_system": "SNB-75 CNS"}, "[47]": {"test_system": "SR leukemia"}, "[48]": {"test_system": "SW-620 colon"}, "[49]": {"test_system": "T-47D breast"}, "[50]": {"test_system": "TK-10 renal"}, "[51]": {"test_system": "U251 CNS"}, "[52]": {"test_system": "UACC-257 melanoma"}, "[53]": {"test_system": "UACC-62 melanoma"}, "[54]": {"test_system": "UO-31 renal"}}, "note": "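Five concentrations, 48 hours, 96-well plates. Here, GI50 denotes the concentration required for 50% inhibition of growth. Definition used: TGI = concentration required for complete inhibition of growth.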"}
{"smiles": "O=C(N/N=C\\c1ccc(Cl)cc1)c1ccc2nc(-c3ccc(Br)cc3)[nH]c2c1", "values": [{"measurement": "GI50", "setting": "[1]", "value": 1760, "unit": "nM"}, {"measurement": "TGI", "setting": "[1]", "value": 3.26, "unit": "µM"}, {"measurement": "GI50", "setting": "[2]", "value": 1670, "unit": "nM"}, {"measurement": "TGI", "setting": "[2]", "value": 3.68, "unit": "µM"}, {"measurement": "GI50", "setting": "[3]", "value": 1750, "unit": "nM"}, {"measurement": "TGI", "setting": "[3]", "value": 3.3, "unit": "µM"}, {"measurement": "GI50", "setting": "[4]", "value": 1750, "unit": "nM"}, {"measurement": "TGI", "setting": "[4]", "value": 3.17, "unit": "µM"}, {"measurement": "GI50", "setting": "[5]", "value": 1870, "unit": "nM"}, {"measurement": "TGI", "setting": "[5]", "value": 5.54, "unit": "µM"}, {"measurement": "GI50", "setting": "[6]", "value": 1600, "unit": "nM"}, {"measurement": "TGI", "setting": "[6]", "value": 3.1, "unit": "µM"}, {"measurement": "GI50", "setting": "[7]", "value": 1900, "unit": "nM"}, {"measurement": "TGI", "setting": "[7]", "value": 4.73, "unit": "µM"}, {"measurement": "GI50", "setting": "[8]", "value": 1430, "unit": "nM"}, {"measurement": "TGI", "setting": "[8]", "value": 2860, "unit": "nM"}, {"measurement": "GI50", "setting": "[9]", "value": 1980, "unit": "nM"}, {"measurement": "TGI", "setting": "[9]", "value": 4.18, "unit": "µM"}, {"measurement": "GI50", "setting": "[10]", "value": 2030, "unit": "nM"}, {"measurement": "TGI", "setting": "[10]", "value": 4.28, "unit": "µM"}, {"measurement": "GI50", "setting": "[11]", "value": 1830, "unit": "nM"}, {"measurement": "TGI", "setting": "[11]", "value": 3.61, "unit": "µM"}, {"measurement": "GI50", "setting": "[12]", "value": 1490, "unit": "nM"}, {"measurement": "TGI", "setting": "[12]", "value": 2990, "unit": "nM"}, {"measurement": "GI50", "setting": "[13]", "value": 1520, "unit": "nM"}, {"measurement": "TGI", "setting": "[13]", "value": 3.33, "unit": "µM"}, {"measurement": "GI50", "setting": "[14]", "value": 2040, "unit": "nM"}, {"measurement": "TGI", "setting": "[14]", "value": 5.03, "unit": "µM"}, {"measurement": "GI50", "setting": "[15]", "value": 1640, "unit": "nM"}, {"measurement": "TGI", "setting": "[15]", "value": 3.2, "unit": "µM"}, {"measurement": "GI50", "setting": "[16]", "value": 2190, "unit": "nM"}, {"measurement": "TGI", "setting": "[16]", "value": 5.27, "unit": "µM"}, {"measurement": "GI50", "setting": "[17]", "value": 1040, "unit": "nM"}, {"measurement": "TGI", "setting": "[17]", "value": 2380, "unit": "nM"}, {"measurement": "GI50", "setting": "[18]", "value": 1580, "unit": "nM"}, {"measurement": "TGI", "setting": "[18]", "value": 3.41, "unit": "µM"}, {"measurement": "GI50", "setting": "[19]", "value": 1860, "unit": "nM"}, {"measurement": "TGI", "setting": "[19]", "value": 4.16, "unit": "µM"}, {"measurement": "GI50", "setting": "[20]", "value": 1490, "unit": "nM"}, {"measurement": "TGI", "setting": "[20]", "value": 3.09, "unit": "µM"}, {"measurement": "GI50", "setting": "[21]", "value": 1920, "unit": "nM"}, {"measurement": "TGI", "setting": "[21]", "value": 3.93, "unit": "µM"}, {"measurement": "GI50", "setting": "[22]", "value": 1680, "unit": "nM"}, {"measurement": "TGI", "setting": "[22]", "value": 3.22, "unit": "µM"}, {"measurement": "GI50", "setting": "[23]", "value": 1010, "unit": "nM"}, {"measurement": "TGI", "setting": "[23]", "value": 2460, "unit": "nM"}, {"measurement": "GI50", "setting": "[24]", "value": 1900, "unit": "nM"}, {"measurement": "TGI", "setting": "[24]", "value": 3.89, "unit": "µM"}, {"measurement": "GI50", "setting": "[25]", "value": 1520, "unit": "nM"}, {"measurement": "TGI", "setting": "[25]", "value": 3.15, "unit": "µM"}, {"measurement": "GI50", "setting": "[26]", "value": 1620, "unit": "nM"}, {"measurement": "TGI", "setting": "[26]", "value": 4.29, "unit": "µM"}, {"measurement": "GI50", "setting": "[27]", "value": 4.96, "unit": "µM"}, {"measurement": "TGI", "setting": "[27]", "value": 24, "unit": "µM"}, {"measurement": "GI50", "setting": "[28]", "value": 1860, "unit": "nM"}, {"measurement": "TGI", "setting": "[28]", "value": 4.02, "unit": "µM"}, {"measurement": "GI50", "setting": "[29]", "value": 601, "unit": "nM"}, {"measurement": "TGI", "setting": "[29]", "value": 1940, "unit": "nM"}, {"measurement": "GI50", "setting": "[30]", "value": 1630, "unit": "nM"}, {"measurement": "TGI", "setting": "[30]", "value": 3.38, "unit": "µM"}, {"measurement": "GI50", "setting": "[31]", "value": 2440, "unit": "nM"}, {"measurement": "TGI", "setting": "[31]", "value": 8.01, "unit": "µM"}, {"measurement": "GI50", "setting": "[32]", "value": 2070, "unit": "nM"}, {"measurement": "TGI", "setting": "[32]", "value": 4.83, "unit": "µM"}, {"measurement": "GI50", "setting": "[33]", "value": 1990, "unit": "nM"}, {"measurement": "TGI", "setting": "[33]", "value": 4.26, "unit": "µM"}, {"measurement": "GI50", "setting": "[34]", "value": 1490, "unit": "nM"}, {"measurement": "TGI", "setting": "[34]", "value": 2880, "unit": "nM"}, {"measurement": "GI50", "setting": "[35]", "value": 1580, "unit": "nM"}, {"measurement": "TGI", "setting": "[35]", "value": 2990, "unit": "nM"}, {"measurement": "GI50", "setting": "[36]", "value": 1600, "unit": "nM"}, {"measurement": "TGI", "setting": "[36]", "value": 3.89, "unit": "µM"}, {"measurement": "GI50", "setting": "[37]", "value": 1500, "unit": "nM"}, {"measurement": "TGI", "setting": "[37]", "value": 3.18, "unit": "µM"}, {"measurement": "GI50", "setting": "[38]", "value": 2560, "unit": "nM"}, {"measurement": "TGI", "setting": "[38]", "value": 6.87, "unit": "µM"}, {"measurement": "GI50", "setting": "[39]", "value": 2070, "unit": "nM"}, {"measurement": "TGI", "setting": "[39]", "value": 4.59, "unit": "µM"}, {"measurement": "GI50", "setting": "[40]", "value": 1720, "unit": "nM"}, {"measurement": "TGI", "setting": "[40]", "value": 3.24, "unit": "µM"}, {"measurement": "GI50", "setting": "[41]", "value": 1730, "unit": "nM"}, {"measurement": "TGI", "setting": "[41]", "value": 3.26, "unit": "µM"}, {"measurement": "GI50", "setting": "[42]", "value": 1850, "unit": "nM"}, {"measurement": "TGI", "setting": "[42]", "value": 3.63, "unit": "µM"}, {"measurement": "GI50", "setting": "[43]", "value": 1510, "unit": "nM"}, {"measurement": "TGI", "setting": "[43]", "value": 3.87, "unit": "µM"}, {"measurement": "GI50", "setting": "[44]", "value": 1760, "unit": "nM"}, {"measurement": "TGI", "setting": "[44]", "value": 3.49, "unit": "µM"}, {"measurement": "GI50", "setting": "[45]", "value": 2110, "unit": "nM"}, {"measurement": "TGI", "setting": "[45]", "value": 4.91, "unit": "µM"}, {"measurement": "GI50", "setting": "[46]", "value": 1830, "unit": "nM"}, {"measurement": "TGI", "setting": "[46]", "value": 4.01, "unit": "µM"}, {"measurement": "GI50", "setting": "[47]", "value": 895, "unit": "nM"}, {"measurement": "TGI", "setting": "[47]", "value": 3.39, "unit": "µM"}, {"measurement": "GI50", "setting": "[48]", "value": 1600, "unit": "nM"}, {"measurement": "TGI", "setting": "[48]", "value": 3.26, "unit": "µM"}, {"measurement": "GI50", "setting": "[49]", "value": 1580, "unit": "nM"}, {"measurement": "TGI", "setting": "[49]", "value": 3.25, "unit": "µM"}, {"measurement": "GI50", "setting": "[50]", "value": 2070, "unit": "nM"}, {"measurement": "TGI", "setting": "[50]", "value": 3.89, "unit": "µM"}, {"measurement": "GI50", "setting": "[51]", "value": 1780, "unit": "nM"}, {"measurement": "TGI", "setting": "[51]", "value": 3.18, "unit": "µM"}, {"measurement": "GI50", "setting": "[52]", "value": 1600, "unit": "nM"}, {"measurement": "TGI", "setting": "[52]", "value": 3.1, "unit": "µM"}, {"measurement": "GI50", "setting": "[53]", "value": 1850, "unit": "nM"}, {"measurement": "TGI", "setting": "[53]", "value": 3.85, "unit": "µM"}, {"measurement": "GI50", "setting": "[54]", "value": 1450, "unit": "nM"}, {"measurement": "TGI", "setting": "[54]", "value": 2860, "unit": "nM"}]}
